One data set concerns the target T1, hNPY2R (Homo sapiens, UniProt P49146).
T1 construct: expressed in transfected cells; host or cells: HEK-293 cells carrying a CRE-luciferase reporter gene
T1 sequence (P49146 1-381): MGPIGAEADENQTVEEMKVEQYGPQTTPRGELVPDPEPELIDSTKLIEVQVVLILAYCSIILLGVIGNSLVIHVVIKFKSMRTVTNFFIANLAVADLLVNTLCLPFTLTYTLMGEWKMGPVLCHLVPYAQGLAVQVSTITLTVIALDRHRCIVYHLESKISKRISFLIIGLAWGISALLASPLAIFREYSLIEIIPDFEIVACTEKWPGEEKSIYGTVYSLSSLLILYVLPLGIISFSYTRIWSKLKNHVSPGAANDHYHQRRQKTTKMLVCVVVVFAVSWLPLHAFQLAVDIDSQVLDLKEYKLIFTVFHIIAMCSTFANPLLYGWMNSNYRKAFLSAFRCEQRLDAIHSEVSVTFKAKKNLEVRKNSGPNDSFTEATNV
Nature of the data set: hNPY2R CreLuc reporter gene assay in 0.5% and 100% plasma. It is filed as cell-based. Particulars: CreLuc reporter gene assay, 0.5% human plasma; read-out: hNPY2R 0.5% hP. An outline of the steps: (§1)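 HEK cells (GLP-1R, NPY2R) or CHO cells (GIPR) carrying a CRE-luciferase reporter, incubated 4 h at 37 °C with peptides in HBSS/20 mM HEPES pH 7.4 plus 0.5% human plasma, or in 100% plasma. Luminescence read; EC50 from 8-point variable-slope sigmoid fits.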

Data set [1] is described as follows: Mouse PK after intravenous application. It is filed as in vivo. The following applies: plasma, mean residence time, intravenous 30-60 nmol/kg, male NMRI mice. As to the method:
Pharmacokinetic parameters of the peptides were determined after intravenous application to NMRI mice. Male NMRI mice were obtained from Janvier Laboratories (France) weighing 30 to 40 g. Mice were housed in standard cages with a 12:12 hour light:dark cycle and standard food and water access ad libitum. Each test peptide was dissolved in 50 mM phosphate buffer (pH 7.4)/3.5% mannitol. Intravenous application of 30-60 nmol/kg was performed via the tail vein. Serial blood samples from conscious mice were collected from the saphenous vein in EDTA-containing vials at different time points up to 56 hours post-dosing. Subsequently, plasma was prepared by centrifugation for 5 min at approximately 5000 rpm and stored at −20° C. until quantification of the peptide plasma levels by liquid chromatography mass spectrometry (LC-MS). Individual plasma concentration—time profiles were analysed by a non-compartmental approach and the resulting pharmacokinetic parameters were calculated.

The target in the next data set is T2, hGIPR (Homo sapiens, UniProt P48546).
T2 construct: expressed in transfected cells; host or cells: CHO cells carrying a CRE-luciferase reporter gene
T2 sequence (P48546 22-466): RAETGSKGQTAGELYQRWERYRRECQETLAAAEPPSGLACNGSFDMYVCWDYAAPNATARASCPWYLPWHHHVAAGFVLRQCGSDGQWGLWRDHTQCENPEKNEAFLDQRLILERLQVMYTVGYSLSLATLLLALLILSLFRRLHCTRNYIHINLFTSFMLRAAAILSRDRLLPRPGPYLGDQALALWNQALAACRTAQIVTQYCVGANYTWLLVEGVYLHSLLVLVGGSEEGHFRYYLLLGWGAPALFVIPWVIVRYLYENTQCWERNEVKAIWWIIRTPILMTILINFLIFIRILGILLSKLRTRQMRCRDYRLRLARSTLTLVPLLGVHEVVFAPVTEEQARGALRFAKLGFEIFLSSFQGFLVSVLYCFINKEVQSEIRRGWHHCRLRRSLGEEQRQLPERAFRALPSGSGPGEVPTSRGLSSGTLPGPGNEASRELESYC
Nature of the data set: hGIPR CreLuc reporter gene assay in 0.5% and 100% plasma. The format is cell-based. The following applies: CreLuc reporter gene assay. An outline of the steps: as §1
(In general: Reporter assays use an easily measured gene product as a stand-in for the process of interest.)

A further data set addresses T3, hGLP1R (Homo sapiens, UniProt P43220).
T3 construct: expressed in transfected cells; host or cells: HEK-293 cells carrying a CRE-luciferase reporter gene
Nature of the data set: hGLP1R CreLuc reporter gene assay in 0.5% and 100% plasma. It is filed as cell-based. The following applies: CreLuc reporter gene assay. The method, boiled down:
as §1

[2] abbreviates: 0.5% human plasma, read-out: hGIPR 0.5% hP.
Where [3] appears, read: 100% human plasma, read-out: hGIPR 100% hP.
Where [4] appears, read: 0.5% human plasma, read-out: hGLP1R 0.5% hP.
[5] abbreviates: 100% human plasma, read-out: hGLP1R 100% hP.

We go through three compounds from patent publication US20240247080A1, “GLP1/GIP/NPY2 RECEPTOR TRIPLE AGONISTS” (Boehringer Ingelheim International GmbH, priority 2022, published 2024).

Where two headings read alike, the source gives them in different places.

T3 sequence (P43220 24-463): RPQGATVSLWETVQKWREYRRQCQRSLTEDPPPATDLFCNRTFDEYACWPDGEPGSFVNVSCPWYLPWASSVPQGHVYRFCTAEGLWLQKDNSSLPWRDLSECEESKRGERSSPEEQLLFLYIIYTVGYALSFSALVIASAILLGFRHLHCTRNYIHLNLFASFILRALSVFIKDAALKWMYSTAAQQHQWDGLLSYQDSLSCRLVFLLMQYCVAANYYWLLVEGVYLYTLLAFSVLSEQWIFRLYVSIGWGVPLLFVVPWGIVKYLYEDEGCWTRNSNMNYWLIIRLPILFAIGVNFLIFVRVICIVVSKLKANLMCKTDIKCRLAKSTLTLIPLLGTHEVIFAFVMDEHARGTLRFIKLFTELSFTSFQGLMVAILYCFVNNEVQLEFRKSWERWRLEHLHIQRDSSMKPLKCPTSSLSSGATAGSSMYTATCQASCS

Regarding `CC[C@H](C)[C@H](NC(=O)[C@H](CC(C)C)NC(=O)[C@H](Cc1c[nH]c2ccccc12)NC(=O)[C@H](CCC(=O)O)NC(=O)[C@@H](NC(=O)[C@H](Cc1ccccc1)NC(=O)[C@H](C)NC(=O)C(C)(C)NC(=O)[C@H](CCC(N)=O)NC(=O)[C@H](C)NC(=O)[C@H](CCC(N)=O)NC(=O)[C@H](CCCCN)NC(=O)[C@H](CCC(=O)O)NC(=O)[C@H](CC(C)C)NC(=O)C(C)(C)NC(=O)[C@@H](NC(=O)[C@H](CO)NC(=O)[C@H](Cc1ccc(O)cc1)NC(=O)[C@H](CC(=O)O)NC(=O)[C@H](CO)NC(=O)[C@@H](NC(=O)[C@H](Cc1ccccc1)NC(=O)[C@@H](NC(=O)CNC(=O)[C@H](CCC(=O)O)NC(=O)C(C)(C)NC(=O)[C@@H](N)Cc1ccc(O)cc1)[C@@H](C)O)[C@@H](C)O)[C@@H](C)CC)C(C)C)C(=O)N[C@@H](CCCCNC(=O)[C@@H](N)CCCCNC(=O)CC[C@H](NC(=O)CC[C@H](NC(=O)CC[C@H](NC(=O)CC[C@H](NC(=O)CC[C@H](NC(=O)CC[C@H](NC(=O)CCCCCCCCCCCCCCCCCCC(=O)O)C(=O)O)C(=O)O)C(=O)O)C(=O)O)C(=O)O)C(=O)O)C(=O)NCC(=O)NCC(=O)N1CCC[C@H]1C(=O)N[C@@H](CO)C(=O)N[C@@H](CO)C(=O)NCC(=O)N[C@@H](C)C(=O)N[C@@H](CO)C(=O)N[C@@H](CC(C)C)C(=O)N[C@@H](CCCNC(=N)N)C(=O)N[C@@H](Cc1c[nH]cn1)C(=O)N[C@@H](Cc1ccc(O)cc1)C(=O)N[C@@H](Cc1ccc(O)cc1)C(=O)N[C@@H](CC(N)=O)C(=O)N[C@@H](Cc1c[nH]c2ccccc12)C(=O)N[C@@H](CC(C)C)C(=O)N[C@H](C(=O)N[C@@H](CCCNC(=N)N)C(=O)N[C@@H](CCC(N)=O)C(=O)N(C)[C@@H](CCCNC(=N)N)C(=O)N[C@@H](Cc1ccc(O)cc1)C(N)=O)[C@@H](C)O` [Compound 83, Y-Aib-E-G-T-F-T-S-D-Y-S-I-Aib-L-E-K-Q-A-Q-Aib-A-F-V-E-W-L-I-K(1,3)-G-G-P-S-S-G-A-S-L-R-H-Y-Y-N-W-L-T-R-Q-NMeR-Y-NH2.C20DA-gGlu-gGlu-gGlu-gGlu-gGlu-gGlu-eLys(1,2)], the EC50 at hNPY2R was determined as 28.8 nM; at hGIPR (setting [2]) it was 0.13 nM; on hGIPR (setting [3]) it was 1.06 nM; at hGLP1R (setting [4]), 0.17 nM; on hGLP1R (setting [5]), 2.87 nM. In data set [1], the MRT worked out at 10.3 h.
Regarding `CC[C@H](C)[C@H](NC(=O)[C@H](CC(C)C)NC(=O)[C@H](Cc1c[nH]c2ccccc12)NC(=O)[C@H](CCC(=O)O)NC(=O)[C@@H](NC(=O)[C@H](Cc1ccccc1)NC(=O)[C@H](C)NC(=O)C(C)(C)NC(=O)[C@H](CCC(N)=O)NC(=O)[C@H](C)NC(=O)[C@H](CCC(N)=O)NC(=O)[C@H](CCCCN)NC(=O)[C@H](CCC(=O)O)NC(=O)[C@H](CC(C)C)NC(=O)C(C)(C)NC(=O)[C@@H](NC(=O)[C@H](CO)NC(=O)[C@H](Cc1ccc(O)cc1)NC(=O)[C@H](CC(=O)O)NC(=O)[C@H](CO)NC(=O)[C@@H](NC(=O)[C@H](Cc1ccccc1)NC(=O)[C@@H](NC(=O)CNC(=O)[C@H](CCC(=O)O)NC(=O)C(C)(C)NC(=O)[C@@H](N)Cc1ccc(O)cc1)[C@@H](C)O)[C@@H](C)O)[C@@H](C)CC)C(C)C)C(=O)N[C@@H](CCCCNC(=O)[C@@H](N)CCCCNC(=O)CC[C@H](NC(=O)CC[C@H](NC(=O)CC[C@H](NC(=O)CC[C@H](NC(=O)CC[C@H](NC(=O)CC[C@H](NC(=O)CCCCCCCCCCCCCCCCCCC(=O)O)C(=O)O)C(=O)O)C(=O)O)C(=O)O)C(=O)O)C(=O)O)C(=O)NCC(=O)NCC(=O)N1CCC[C@H]1C(=O)N[C@@H](CO)C(=O)N[C@@H](CO)C(=O)NCC(=O)N[C@@H](C)C(=O)N[C@@H](CO)C(=O)N[C@@H](CC(C)C)C(=O)N[C@@H](CCCNC(=N)N)C(=O)N[C@@H](Cc1c[nH]cn1)C(=O)N[C@@H](Cc1ccc(O)cc1)C(=O)N[C@@H](Cc1ccc(O)cc1)C(=O)N[C@@H](CC(N)=O)C(=O)N[C@@H](Cc1c[nH]c2ccccc12)C(=O)N[C@@H](CC(C)C)C(=O)N[C@H](C(=O)N[C@@H](CCCNC(=N)N)C(=O)N(C)[C@@H](CCC(N)=O)C(=O)N[C@@H](CCCNC(=N)N)C(=O)N[C@@H](Cc1ccc(O)cc1)C(N)=O)[C@@H](C)O` [Compound 85, Y-Aib-E-G-T-F-T-S-D-Y-S-I-Aib-L-E-K-Q-A-Q-Aib-A-F-V-E-W-L-I-K(1,3)-G-G-P-S-S-G-A-S-L-R-H-Y-Y-N-W-L-T-R-NMeQ-R-Y-NH2.C20DA-gGlu-gGlu-gGlu-gGlu-gGlu-gGlu-eLys(1,2)], the EC50 at hNPY2R was 10.3 nM; at hGIPR (setting [2]) it was 0.22 nM; on hGIPR (setting [3]) it was 1.11 nM; at hGLP1R (setting [4]), 0.15 nM. The compound also registered an MRT in data set [1] of 12.6 h.
Turning to `CC[C@H](C)[C@H](NC(=O)[C@H](CC(C)C)NC(=O)[C@H](Cc1c[nH]c2ccccc12)NC(=O)[C@H](CCC(=O)O)NC(=O)[C@@H](NC(=O)[C@H](Cc1ccccc1)NC(=O)[C@H](C)NC(=O)C(C)(C)NC(=O)[C@H](CCC(N)=O)NC(=O)[C@H](C)NC(=O)[C@H](CCC(N)=O)NC(=O)[C@H](CCCCN)NC(=O)[C@H](CCC(=O)O)NC(=O)[C@H](CC(C)C)NC(=O)C(C)(C)NC(=O)[C@@H](NC(=O)[C@H](CO)NC(=O)[C@H](Cc1ccc(O)cc1)NC(=O)[C@H](CC(=O)O)NC(=O)[C@H](CO)NC(=O)[C@@H](NC(=O)[C@H](Cc1ccccc1)NC(=O)[C@@H](NC(=O)CNC(=O)[C@H](CCC(=O)O)NC(=O)C(C)(C)NC(=O)[C@@H](N)Cc1ccc(O)cc1)[C@@H](C)O)[C@@H](C)O)[C@@H](C)CC)C(C)C)C(=O)N[C@@H](CCCCNC(=O)[C@@H](N)CCCCNC(=O)CC[C@H](NC(=O)CC[C@H](NC(=O)CC[C@H](NC(=O)CC[C@H](NC(=O)CC[C@H](NC(=O)CC[C@H](NC(=O)CCCCCCCCCCCCCCCCCCC(=O)O)C(=O)O)C(=O)O)C(=O)O)C(=O)O)C(=O)O)C(=O)O)C(=O)NCC(=O)NCC(=O)N1CCC[C@H]1C(=O)N[C@@H](CO)C(=O)N[C@@H](CO)C(=O)NCC(=O)N[C@@H](C)C(=O)N[C@@H](CO)C(=O)N[C@@H](CC(C)C)C(=O)N[C@@H](CCCNC(=N)N)C(=O)N[C@@H](Cc1c[nH]cn1)C(=O)N[C@@H](Cc1ccc(O)cc1)C(=O)N[C@@H](Cc1ccc(O)cc1)C(=O)N[C@@H](CC(N)=O)C(=O)N[C@@H](Cc1c[nH]c2ccccc12)C(=O)N[C@@H](CC(C)C)C(=O)N[C@H](C(=O)N[C@@H](CCCNC(=N)N)C(=O)N[C@@H](CCC(N)=O)C(=O)N[C@@H](CCCNC(=N)N)C(=O)N[C@H](Cc1ccc(O)cc1)C(N)=O)[C@@H](C)O` [Compound 214, Y-Aib-E-G-T-F-T-S-D-Y-S-I-Aib-L-E-K-Q-A-Q-Aib-A-F-V-E-W-L-I-K(1,3)-GGPSSGASLRHYYNWLTRQR-DTyr-NH2.C20DA-gGlu-gGlu-gGlu-gGlu-gGlu-gGlu-eLys(1,2)], the EC50 is more than 99.9 nM at hNPY2R; 0.23 nM on hGIPR (setting [2]); 1.81 nM on hGIPR (setting [3]); 0.19 nM on hGLP1R (setting [4]); 2.65 nM on hGLP1R (setting [5]). Besides, the MRT in data set [1] came out at 10.1 h.

As usually defined, the MRT is the average time that molecules of a dose stay in the body.
